Entries after “also recorded” stand apart in the source; their conditions may differ. Positions of bridges follow the written chain, without caps; N, C: chain ends. Non-standard residues stand in square brackets, D forms with d. Residues, ends and D or L forms follow the SMILES beside them. [invdT] = inverted (3'-3') thymidine; hArg = N=C(N)NCCCC[C@H](N)C(=O)O; Mpa = O=C(O)CCS
How the values were obtained:
aptamers 9.3t and 11F7T = test: APTT clotting assay: reversal of both aptamers simultaneously; format: biochemical, human; conditions: protamine 2.5 μg per 160 μl
Method: All reactions were performed in triplicate.

human plasma = test: APTT clotting time with antidote alone (no aptamer); format: biochemical
aptamer 9.3t [1] = test: Isothermal titration calorimetry, two-sites binding model (Table 5); conditions: for K1: first stage binding; for affinity for aptamer 9.3t (in words): two-site model
[2] = tested on: Factor IXa aptamer (Ch-9.3t); test: Swine systemic anticoagulation, ACT: antidote reversal; format: in vivo; conditions: protamine 10 mg/kg; for reversal of aptamer anticoagulation (ACT): 30 minutes post aptamer
[3] = in vivo; cited from earlier work
aptamer 11F7T = test: APTT clotting assay: antidote reversal of factor Xa aptamer in human plasma; conditions: for reversal of factor Xa aptamer (11F7T) anticoagulant activity: antidote 2.5 μg (per 160 μl), human plasma
aptamer 9.3t [4] = test: APTT clotting assay: antidote reversal of factor IXa aptamer in human plasma; conditions: for reversal of factor IXa aptamer (9.3t / Ch-9.3t) anticoagulant activity: antidote 2.5 μg (per 160 μl), human plasma
human factor IXa = human factor IXa (Homo sapiens, UniProt P00740); test: APTT clotting assay: anticoagulant activity of factor IXa aptamer; conditions: FIG. 5B
[5] = in vivo; cited from earlier work; remark: listed apart in the source
Aptamer Ch-9.3t = test: Isothermal titration calorimetry (Example V, Table 3); format: binding; conditions: ITC, 298K, PBS
[6] = in vivo; cited from earlier work; remark: listed apart in the source
VWF = biological target: T1, VWF (Homo sapiens, UniProt P04275); test: PFA-100 platelet function assay: antiplatelet activity of VWF aptamers; format: cell-based; conditions: whole blood
T1 construct: from tissue; host or cells: normal human whole blood
Method: The Platelet Function Analyzer, PFA-100 (Dade Behring, Deerfield, Ill.), measures platelet function in terms of clot formation time. In this assay, collagen/ADP cartridges were used to activate the platelets. 800 μl of whole blood was mixed with aptamer in platelet binding buffer (40 μl) (150 mM NaCl; 20 mM Hepes pH:7.4; 5 mM KCl; 1 mM MgCl2 and 1 mM CaCl2) and incubated for 5 min at room temperature. Antidote molecule or platelet buffer (40 μl) was than added and incubated for 5 min at room temperature. This mixture was then added to a collagen/ADP cartridge and tested for its closing time (Harrison, Blood Rev. 19:111 (2005)). The maximum closing time of the PFA-100 is 300 seconds. Data is shown as the change in closing time. All reactions were performed in triplicate.

[7] = 9.3t-Bi 150 nM + antidote 2.5 ug/well
[8] = protamine 2.5 μg, aptamer 150 nM

T1 sequence (P04275 23-2813): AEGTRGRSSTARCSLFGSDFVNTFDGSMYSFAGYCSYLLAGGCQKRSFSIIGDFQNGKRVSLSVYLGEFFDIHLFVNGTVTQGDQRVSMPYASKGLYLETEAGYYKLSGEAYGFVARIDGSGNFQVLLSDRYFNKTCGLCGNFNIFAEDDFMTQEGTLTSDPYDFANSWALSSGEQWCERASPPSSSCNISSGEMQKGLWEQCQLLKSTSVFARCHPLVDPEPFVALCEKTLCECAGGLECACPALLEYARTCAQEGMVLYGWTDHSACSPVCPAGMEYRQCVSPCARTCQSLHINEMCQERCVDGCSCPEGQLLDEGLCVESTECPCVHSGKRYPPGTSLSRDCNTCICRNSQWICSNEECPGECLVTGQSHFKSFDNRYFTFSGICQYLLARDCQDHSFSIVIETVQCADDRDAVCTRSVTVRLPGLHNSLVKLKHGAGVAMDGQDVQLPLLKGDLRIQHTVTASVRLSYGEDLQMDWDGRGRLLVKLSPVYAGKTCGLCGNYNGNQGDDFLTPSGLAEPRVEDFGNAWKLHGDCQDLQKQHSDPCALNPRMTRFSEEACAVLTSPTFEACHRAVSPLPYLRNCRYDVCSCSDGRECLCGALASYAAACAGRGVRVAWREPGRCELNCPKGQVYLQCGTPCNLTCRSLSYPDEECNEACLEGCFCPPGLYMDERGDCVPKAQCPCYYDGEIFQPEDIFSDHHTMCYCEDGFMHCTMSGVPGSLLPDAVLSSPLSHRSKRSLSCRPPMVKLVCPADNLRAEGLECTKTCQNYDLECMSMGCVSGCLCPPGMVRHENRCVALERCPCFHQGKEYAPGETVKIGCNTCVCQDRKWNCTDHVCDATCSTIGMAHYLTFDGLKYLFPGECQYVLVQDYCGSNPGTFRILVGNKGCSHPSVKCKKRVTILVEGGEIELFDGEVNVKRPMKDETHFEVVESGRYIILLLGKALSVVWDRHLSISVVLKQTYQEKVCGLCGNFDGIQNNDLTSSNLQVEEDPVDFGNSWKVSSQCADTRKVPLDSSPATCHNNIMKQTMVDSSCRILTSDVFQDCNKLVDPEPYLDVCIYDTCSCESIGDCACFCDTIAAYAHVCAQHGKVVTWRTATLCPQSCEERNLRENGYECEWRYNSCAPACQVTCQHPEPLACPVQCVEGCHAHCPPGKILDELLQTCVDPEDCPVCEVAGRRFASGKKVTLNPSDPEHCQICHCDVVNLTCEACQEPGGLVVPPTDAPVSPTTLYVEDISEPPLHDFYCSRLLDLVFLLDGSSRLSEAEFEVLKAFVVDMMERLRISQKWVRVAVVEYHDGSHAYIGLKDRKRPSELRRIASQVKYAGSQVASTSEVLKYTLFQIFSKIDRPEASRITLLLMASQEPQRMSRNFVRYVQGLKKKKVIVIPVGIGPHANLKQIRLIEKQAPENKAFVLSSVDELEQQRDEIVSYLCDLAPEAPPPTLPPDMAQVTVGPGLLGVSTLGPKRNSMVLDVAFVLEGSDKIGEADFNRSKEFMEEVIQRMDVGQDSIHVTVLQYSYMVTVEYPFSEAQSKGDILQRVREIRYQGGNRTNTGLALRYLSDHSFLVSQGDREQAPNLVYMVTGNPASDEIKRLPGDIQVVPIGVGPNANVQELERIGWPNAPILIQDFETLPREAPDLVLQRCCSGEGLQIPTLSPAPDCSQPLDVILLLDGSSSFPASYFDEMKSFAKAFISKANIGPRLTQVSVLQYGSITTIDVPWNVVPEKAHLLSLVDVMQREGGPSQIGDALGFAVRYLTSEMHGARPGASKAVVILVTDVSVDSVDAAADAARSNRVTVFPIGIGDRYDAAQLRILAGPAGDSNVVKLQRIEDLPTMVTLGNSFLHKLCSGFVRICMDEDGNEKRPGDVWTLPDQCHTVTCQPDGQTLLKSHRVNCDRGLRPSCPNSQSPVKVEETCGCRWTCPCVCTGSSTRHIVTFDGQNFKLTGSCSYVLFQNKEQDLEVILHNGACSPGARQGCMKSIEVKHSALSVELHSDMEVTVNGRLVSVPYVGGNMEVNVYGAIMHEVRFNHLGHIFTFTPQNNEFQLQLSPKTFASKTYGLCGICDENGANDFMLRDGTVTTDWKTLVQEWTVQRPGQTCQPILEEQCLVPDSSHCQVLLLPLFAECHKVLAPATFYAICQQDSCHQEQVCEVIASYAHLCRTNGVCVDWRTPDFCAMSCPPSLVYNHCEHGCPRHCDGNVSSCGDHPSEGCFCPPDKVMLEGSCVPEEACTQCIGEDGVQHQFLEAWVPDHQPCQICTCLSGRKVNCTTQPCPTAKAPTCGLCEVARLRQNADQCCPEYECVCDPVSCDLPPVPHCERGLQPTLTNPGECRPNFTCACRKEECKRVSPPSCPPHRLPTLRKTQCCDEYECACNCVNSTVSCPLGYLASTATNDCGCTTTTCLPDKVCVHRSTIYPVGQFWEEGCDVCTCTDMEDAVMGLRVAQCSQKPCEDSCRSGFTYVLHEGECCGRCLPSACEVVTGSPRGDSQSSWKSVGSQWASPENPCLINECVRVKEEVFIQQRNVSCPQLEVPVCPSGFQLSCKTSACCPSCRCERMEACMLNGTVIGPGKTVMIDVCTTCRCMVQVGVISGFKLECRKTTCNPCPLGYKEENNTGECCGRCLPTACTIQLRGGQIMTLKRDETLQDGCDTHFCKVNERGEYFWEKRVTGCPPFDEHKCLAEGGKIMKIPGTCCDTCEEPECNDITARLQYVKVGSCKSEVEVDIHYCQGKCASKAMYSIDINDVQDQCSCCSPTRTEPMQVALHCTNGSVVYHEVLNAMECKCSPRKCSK
human factor IXa, sequence (P00740 227-461 limits assumed): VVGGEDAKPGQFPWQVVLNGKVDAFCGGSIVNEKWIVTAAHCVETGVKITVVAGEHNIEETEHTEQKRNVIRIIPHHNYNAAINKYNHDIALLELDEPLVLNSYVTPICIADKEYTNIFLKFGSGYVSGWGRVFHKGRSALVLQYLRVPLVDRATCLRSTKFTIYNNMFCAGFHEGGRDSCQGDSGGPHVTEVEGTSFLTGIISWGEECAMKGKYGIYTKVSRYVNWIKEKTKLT
human factor IXa, sequence (P00740 47-191 limits assumed): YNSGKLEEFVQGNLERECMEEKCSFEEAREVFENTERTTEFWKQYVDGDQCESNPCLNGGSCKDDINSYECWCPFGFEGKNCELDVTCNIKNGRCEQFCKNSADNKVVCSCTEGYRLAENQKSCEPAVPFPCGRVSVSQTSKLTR

Protamine
duration of simultaneous reversal (aptamers 9.3t and 11F7T): maintained for at least an hour | reversal of both aptamers' activity simultaneously (aptamers 9.3t and 11F7T): reverses | reversal of both aptamers' activity simultaneously (aptamers 9.3t and 11F7T; listed as protamine): reverse the anticoagulant activity of the two aptamers simultaneously | APTT clotting time (human plasma; antidote 2.5 ug/well): 24 s | K1 (aptamer 9.3t [1]): 3.09e+07 M⁻¹ | affinity for aptamer 9.3t (in words) (aptamer 9.3t [1]): significant and similar affinities | time to return of ACT to baseline / reversal [2]: within five minutes | reversal of aptamer anticoagulation (ACT) [2]: reverses | reversal of aptamer anticoagulation (ACT) ([2]; listed as protamine): total reversal; also recorded: complete reversal | duration of reversal ([2]; Example IV): at least one hour | duration of reversal (remainder of the experiment) ([2]; Example VI): 60 min | side effects of administration [3]: associated with several side effects | reversal of factor Xa aptamer (11F7T) anticoagulant activity (aptamer 11F7T; aptamer 250 nM): reverses | reversal of factor Xa aptamer (11F7T) anticoagulant activity (aptamer 11F7T; aptamer 250 nM, listed as protamine): totally reverse | duration of reversal in vitro (APTT) (aptamer 11F7T; protamine): at least 60 minutes | time after protamine administration to total reversal (aptamer 11F7T; protamine 2.5 μg, aptamer 250 nM): ≤ 5 min | protamine concentration for total reversal relative to that routinely used to reverse heparin's anticoagulant activity (aptamer 9.3t [4]; 2.5 μg protamine, both aptamers 9.3t and 11F7T, lower): 2 fold | APTT clotting time (aptamer 9.3t [4]; [7]): 30.3 s | Reversal (aptamer 9.3t [4]; [7]): Yes | reversal of factor IXa aptamer (9.3t / Ch-9.3t) anticoagulant activity (aptamer 9.3t [4]; aptamer 150 nM): reverses | reversal of factor IXa aptamer (9.3t / Ch-9.3t) anticoagulant activity (aptamer 9.3t [4]; aptamer 150 nM, listed as protamine): returned the clotting time to normal; also recorded: totally reverse | duration of reversal in vitro (APTT) (aptamer 9.3t [4]; protamine): at least 60 minutes | duration of reversal (aptamer 9.3t [4]; [8]): maintained for at least an hour | time after protamine addition to return of clotting time to normal (aptamer 9.3t [4]; [8]): ≤ 5 min

9.3t: factor IXa aptamer, 37 nt 2′fluoropyrimidine modified ssRNA, no carrier (SEQ ID NO: 1) (AUGGGGACUAUACCGCGUAAUGCUGCCUCCCCAUU; 2'-fluoro at CU, RNA at AG, 3' [invdT], backbone not given here)
anticoagulant activity (in words) (human factor IXa): potent anticoagulant

N=C(N)NCCCC[C@@H]1NC(=O)CCSSC[C@@H](C(N)=O)NC(=O)[C@@H]2CCCN2C(=O)[C@H](Cc2c[nH]c3ccccc23)NC(=O)[C@H](CC(=O)O)NC(=O)CNC1=O [eptifibatide] ([Mpa][hArg]GDWPC-NH2; disulfide 1-7)
time for clearance of the compound [5]: 2 to 4 h

NCCCNCCCCNCCCN [Spermine]
APTT clotting time (human plasma; antidote 1.3 ug/well): 63.8 s | Binding constant (Aptamer Ch-9.3t): 8800 M⁻¹ | affinity with aptamer 9.3t (in words) (Aptamer Ch-9.3t): No significant binding | K1 (aptamer 9.3t [1]): 1.63e+06 M⁻¹ | K2 (aptamer 9.3t [1]; second stage binding): 126000 M⁻¹ | affinity for aptamer 9.3t (in words) (aptamer 9.3t [1]): orders of magnitude lower | APTT clotting time (aptamer 9.3t [4]; 9.3t-Bi 150 nM + antidote 1.3 ug/well): 72.7 s | Comments: reversal over antidote range (aptamer 9.3t [4]; 9.3t-Bi 150 nM, antidote 1.3 ug/well-10 ug/well): Did not work b/w 1.3 ug/well-10 ug/well

NCCCCNCCCN [spermidine, Spermidine]
affinity with aptamer 9.3t (in words) (Aptamer Ch-9.3t): No significant binding

β-cyclodextrin-containing polycation (imidazole-containing variant) [CDP-Im]
safety profile [6]: favorable safety profile

B1: VWF aptamer 9.3: Von Willebrand factor aptamer (SEQ ID NO: 5) (nucleic acid)
chain: GGGAGGACGAUGCGGAUCGCGCUCUCCUGCUUAAGCAGCUAUCAAAUAGCCCACUCAGACGACUCGCUGAGGAUCCGAGA
modifications: listed as RNA, chemistry not given here
inhibition of platelet function (VWF): can inhibit platelet function

B2: VWF aptamer 9.14: Von Willebrand factor aptamer (SEQ ID NO: 3) (nucleic acid)
chain: GGGAGGACGAUGCGGUGGACGAACUGCCCUCAGCUACUUUCAUGUUGCUGACGCACAGACGACUCGCUGAGGAUCCGAGA
modifications: listed as RNA, chemistry not given here
inhibition of platelet function (VWF): can inhibit platelet function
